Assay results reported in paper PMC10535268, “Design, Synthesis, and Evaluation of Novel Indole Hybrid Chalcones and Their Antiproliferative and Antioxidant Activity” (Molecules, 2023).
Values joined by “and” are separate entries in the source; they are usually repeats but may differ in a detail not shown here. Equal values may be shown once.

How the values were obtained:
MDA-MB-231 = assay: MTT antiproliferative assay, MDA-MB-231; format: cell-based, human; settings: MDA-MB-231, 72 h incubation, mean ± SD of three independent experiments
HCT116 = assay: MTT antiproliferative assay, HCT116; format: cell-based, human; settings: HCT116, 72 h incubation, mean ± SD of three independent experiments
Jurkat = assay: MTT antiproliferative assay, Jurkat; format: cell-based, human; settings: 72 h incubation, mean ± SD of three independent experiments
Hela = assay: MTT antiproliferative assay, HeLa; format: cell-based, human; settings: 72 h incubation, mean ± SD of three independent experiments
Protocol: Table 2 IC50 (μM) ± SD of tested compounds in different cell lines after 72 h incubation. | column: Cell Line, IC50 (µM) ± SD / Hela

MCF-7 = assay: MTT antiproliferative assay, MCF-7; format: cell-based, human; settings: MCF-7, 72 h incubation, mean ± SD of three independent experiments
MCF-10A = assay: MTT cytotoxicity assay, non-cancer MCF-10A; format: cell-based, human; settings: 72 h incubation, mean ± SD of three independent experiments
[1] = DPPH radical scavenging activity; settings: sample 1 mM; for DPPH: 30 min, gallic acid equivalents, mean (±SD), triplicate
[2] = ABTS radical scavenging activity; settings: sample 1 mM, 30 min, gallic acid equivalents, mean (±SD), triplicate
Excerpt: (§1) Table 3 Antioxidant activity.

[3] = Ferric reducing antioxidant power (FRAP); settings: sample 1 mM, 30 min, gallic acid equivalents, mean (±SD), triplicate
Excerpt: as §1

IC50 (MDA-MB-231)	IC50 (HCT116)	IC50 (Jurkat)	IC50 (Hela)	IC50 (MCF-7)	IC50 (MDA-MB-231; Homo sapiens)	IC50 (HCT116; Homo sapiens, HCT-116, 72 h)	IC50 (Jurkat; Homo sapiens)	IC50 (Hela; Homo sapiens, HeLa, 72 h)	IC50 (MCF-7; Homo sapiens, MCF7, 72 h)	SMILES	IC50 (MCF-10A)	DPPH [1]	ABTS [2]	FRAP [3]	IC50 (MCF-10A; Homo sapiens, MCF-10A, 72 h)	DPPH activity [1]
51.4 ± 3.2 µM	31.8 ± 2.1 µM	< 8.3 µM and 7.6 µM	41.7 ± 0.2 µM	37.1 ± 0.4 µM						O=C(/C=C/c1c[nH]c2ccccc12)c1ccccc1F [11a, (2E)-1-(2″-Fluorophenyl)-3-(1′H-indol-3′-yl)prop-2-en-1-one]	89.1 ± 2.4 µM	20.5 (±4.0) µmol GAE/mmol	150.6 (±4.7) µmol GAE/mmol	62.2 (±9.9) µmol GAE/mmol		
> 100 µM	41.5 ± 1.7 µM	32.4 ± 1.2 µM	57.9 ± 0.4 µM	47.5 ± 4.3 µM						Cn1cc(/C=C/C(=O)c2ccccc2F)c2ccccc21 [11b, (2E)-1-(2″-Fluorophenyl)-3-(1′-metyl-1′H-indol-3′-yl)prop-2-en-1-one]	> 100 µM	18.9 (±2.3) µmol GAE/mmol	5.7 (±2.7) µmol GAE/mmol	47.2 (±1.0) µmol GAE/mmol		
21.1 ± 3.9 µM	37.9 ± 2.7 µM	< 8.3 µM and 5.9 µM	19.2 ± 5.7 µM	20 ± 7.9 µM						COn1cc(/C=C/C(=O)c2ccccc2F)c2ccccc21 [11c, (2E)-1-(2″-Fluorophenyl)-3-(1′-methoxy-1′H-indol-3′-yl)prop-2-en-1-one]	67 ± 2.9 µM	23.2 (±11.9) µmol GAE/mmol	41.4 (±6.7) µmol GAE/mmol	27.4 (±0.9) µmol GAE/mmol		
95.5 ± 2.7 µM	45.5 ± 2.4 µM	11.4 ± 1.9 µM	> 100 µM	32 ± 1.2 µM						COc1[nH]c2ccccc2c1/C=C/C(=O)c1ccccc1F [11d, (2E)-1-(2″-Fluorophenyl)-3-(2′-methoxy-1′H-indol-3′-yl)prop-2-en-1-one]	98 ± 1.3 µM					
72.2 ± 5.4 µM	40.1 ± 0.6 µM	< 8.3 µM and 8.3 µM	75.2 ± 4.1 µM	30.3 ± 2.2 µM						CCOc1[nH]c2ccccc2c1/C=C/C(=O)c1ccccc1F [11e, (2E)-3-(2′-ethoxy-1′H-indol-3′-yl)-1-(2″-fluorophenyl)prop-2-en-1-one]	94 ± 4.6 µM					
33.3 ± 0.3 µM	31.7 ± 1.7 µM	36.7 ± 4.9 µM	34.2 ± 0.1 µM	17.1 ± 2.3 µM						CC(C)Oc1[nH]c2ccccc2c1/C=C/C(=O)c1ccc(F)cc1 [11g, (2E)-1-(4″-Fluorophenyl)-3-(2′-isopropoxy-1′H-indol-3′-yl)prop-2-en-1-one]	41.8 ± 1.5 µM					
					51.2 ± 4.1 µM	32.4 ± 1.3 µM	40.4 ± 2.1 µM	50 ± 1.8 µM	26.2 ± 0.5 µM	COCC(C)Oc1[nH]c2ccccc2c1/C=C/C(=O)c1ccccc1F (stereo not shown) [11j, (2E)-1-(2-fluorophenyl)-3-{2-[(1-methoxypropan-2-yl)oxy]-1H-indol-3-yl}prop-2-en-1-one]					76.5 ± 1.1 µM	

Further lines, the compound ahead of its results:

SMILES	IC50 (MDA-MB-231)	IC50 (HCT116)	IC50 (Jurkat)	IC50 (Hela)	IC50 (MCF-7)	IC50 (MDA-MB-231; Homo sapiens)	IC50 (HCT116; Homo sapiens, HCT-116, 72 h)	IC50 (Jurkat; Homo sapiens)	IC50 (Hela; Homo sapiens, HeLa, 72 h)	IC50 (MCF-7; Homo sapiens, MCF7, 72 h)	IC50 (MCF-10A)	DPPH [1]	ABTS [2]	FRAP [3]	IC50 (MCF-10A; Homo sapiens, MCF-10A, 72 h)	DPPH activity [1]
CCCCOc1[nH]c2ccccc2c1/C=C/C(=O)c1ccccc1F [11h, (2E)-3-(2′-butoxy-1′H-indol-3′-yl)-1-(2″-fluorophenyl)prop-2-en-1-one]	36.3 ± 2.1 µM	31 ± 2.9 µM	35.9 ± 1.8 µM	48.2 ± 1 µM	13.8 ± 3.5 µM						65.5 ± 3.7 µM					
CC(C)COc1[nH]c2ccccc2c1/C=C/C(=O)c1ccc(F)cc1 [11i, (2E)-3-(2′-isobutoxy-1′H-indol-3′-yl)-1-(4″-fluorophenyl)prop-2-en-1-one]	42.9 ± 0.4 µM	33.8 ± 0.1 µM	40.1 ± 3.2 µM	54.6 ± 3.6 µM	30.7 ± 0.6 µM						93.3 ± 3.4 µM					
O=C(O)/C=C/c1ccc(O)c(O)c1 [caffeic acid, reference compound]												690.7 (±36.6) µmol GAE/mmol	586.0 (±32.8) µmol GAE/mmol	500.0 (±33.5) µmol GAE/mmol		690.7 ± 36.6 GAE/mmol
O=C(O)/C=C/c1ccc(O)cc1 [p -coumaric acid, p-coumaric acid, reference compound]												23.0 (±3.1) µmol GAE/mmol	278.8 (±11.1) µmol GAE/mmol	105.2 (±4.2) µmol GAE/mmol		
